From patent US6479488B1, “Tetrahydroquinoline derivatives as EAA antagonists” (Glaxo Wellcome SpA, priority 1996, dated 2002)

Legend:
[1] = biological target: T1, strychnine insensitive glycine binding site located on the NMDA receptor complex (Rattus norvegicus, UniProt P35439); assay: Affinity for strychnine insensitive glycine binding site (procedure of Kishimoto et al.)
T1 construct: from tissue
Procedure: The potent and selective action of the compound of the invention at the strychnine-insensitive glycine binding site present on the NMDA receptor complex may be readily determined using conventional test procedures. Thus the ability to bind at the strychnine insensitive glycine binding site was determined using the procedure of Kishimoto H et al. J Neurochem 1981, 37 1015-1024. The selectivity of the action of compounds of the invention for the strychnine insensitive glycine site was confirmed in studies at other ionotropic known excitatory amino acid receptors.
The affinity of a compound of the invention for strychnine insensitive glycine binding site located on the NMDA receptor complex was determined using the procedure of Kishimoto H. et al J. Neurochem 1981, 37, 1015-1024.

[2] = system: generalized seizures induced by an intracerebroventicular injection of NMDA; assay: Inhibition of NMDA induced convulsions in the mouse (procedure of Chiamulera et al.); assay type: in vivo; conditions: mice, iv, 0.1 mg/kg dose, NMDA icv induced generalized seizures
Procedure: The ability of compounds of the invention to inhibit NMDA induced convulsions in the mouse was determined using the procedure of Chiamulera C et al. Psychopharmacology 1990, 102, 551-552. In this test the ability of the compound when administered iv to inhibit the generalized seizures induced by an intracerebroventicular injection of NMDA in mice was examined at 0.1 mg/kgdose.
The results as percent (%) of inhibition at 0.1 mg/kg dose for representative compounds are given below: […]

Row | SMILES | Ki [1] [nM] | % of inhibition [2] [%]
1 | COCC(=O)Nc1ccc(NC(=O)C=C2CC(C(=O)O)Nc3cc(Cl)cc(Cl)c32)cc1 (racemic) [Example 7, (+/−)(E)-5,7-Dichloro-4-[4-(2-methoxy-acetylamino)-phenylcarbamoylmethylene-1,2,3,4-tetrahydro-quinoline-2-carboxylic Acid] | 6.31 | 40
2 | NC(=O)C=Cc1ccc(NC(=O)C=C2CC(C(=O)O)Nc3cc(Cl)cc(Cl)c32)cc1 (racemic) [Example 3, (+/−(E,E)-4-[4-(2-Carbamoyl-vinyl)-phenylcarbamoylmethylene]-5,7-dichloro-1,2,3,4-tetrahydro-quinoline-2-carboxylic Acid] | 7.94 | 40
3 | CC(C)C(=O)NCCOc1ccc(NC(=O)C=C2CC(C(=O)O)Nc3cc(Cl)cc(Cl)c32)cc1 (racemic) [Example 6, (+/−)(E)-5,7-Dichloro-4-[4-(2-isobutyrylamino-ethoxy)-phenylcarbamoylmethylene]-1,2,3,4-tetrahydro-guinoline-2-carboxylic Acid] | 15.8 | 40
4 | CC(C)C(=O)NCC(=O)Nc1ccc(NC(=O)/C=C2\CC(C(=O)[O-])Nc3cc(Cl)cc(Cl)c32)cc1.[Na+] (racemic) [Example 9, (+/−)(E)-5,7-Dichloro-4-(4-isobutyrylaminomethylcarbonylamino-phenylcarbamoylmethylene)-1,2,3,4-tetrahydro-quinoline-2-carboxylic Acid Sodium Salt] | 7.94 | 40
5 | O=C(C=C1CC(C(=O)O)Nc2cc(Cl)cc(Cl)c21)Nc1ccc(OCCN2CCOCC2)cc1 (racemic) [Example 4, (+/−)(E)-5,7-Dichloro-4-[4-(2-morpholin-4-yl-ethoxy)-phenylcarbamoylmethylene]-1,2,3,4-tetrahydro-guinoline-2-carboxylic Acid] | 63.1 | –
6 | N#CCc1ccc(NC(=O)/C=C2\CC(C(=O)O)Nc3cc(Cl)cc(Cl)c32)cc1 (racemic) [Example 5, (+/−)(E)-5,7-Dichloro-4-(4-cyanomethyl-phenylcarbamoylmethylene)-1,2,3,4-tetrahydro-quinoline-2-carboxylic Acid] | 7.94 | –
